Key:
Test in all cases: relative viability (nuclei count vs DMSO), 5 days (fraction); higher = more cells survive
NCI-H2085 = test system: NCI-H2085
How it was run: (§1)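 Values are medians from duplicate plates. Each reflects relative viability, defined as the nuclei count of treated wells over that of vehicle wells. Lung cancer cell lines in 1536-well plates were pin-tool dosed one day after seeding with one drug alone or with a fixed anchor-drug dose plus five library-drug doses (not always all listed) in √10 steps, then fixed, stained and imaged at 4× after 5 days.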

NCI-H1563 = test system: NCI-H1563
How it was run: as §1

NCI-H1944 = test system: NCI-H1944
How it was run: as §1

LU99A = test system: LU99A
How it was run: as §1

HCC-827 = test system: HCC-827
How it was run: as §1

EPLC-272H = test system: EPLC-272H
How it was run: as §1

NCI-H2023 = test system: NCI-H2023
How it was run: as §1

SK-MES-1 = test system: SK-MES-1
How it was run: as §1

EMC-BAC-2 = test system: EMC-BAC-2
How it was run: as §1

NCI-H2405 = test system: NCI-H2405
How it was run: as §1

COR-L23 = test system: COR-L23
How it was run: as §1

NCI-H2087 = test system: NCI-H2087
How it was run: as §1

ChaGo-K-1 = test system: ChaGo-K-1
How it was run: as §1

NCI-H838 = test system: NCI-H838
How it was run: as §1

NCI-H1651 = test system: NCI-H1651
How it was run: as §1

HCC-44 = test system: HCC-44
How it was run: as §1

LCLC-103H = test system: LCLC-103H
How it was run: as §1

NCI-H520 = test system: NCI-H520
How it was run: as §1

NCI-H1793 = test system: NCI-H1793
How it was run: as §1

NCI-H1395 = test system: NCI-H1395
How it was run: as §1

NCI-H650 = test system: NCI-H650
How it was run: as §1

H3255 = test system: H3255
How it was run: as §1

COc1cc2nccc(Oc3ccc(NC(=O)Nc4cc(C)on4)c(Cl)c3)c2cc1OC [Tivozanib] + N=C(N)NC(=N)NCCc1ccccc1 [Phenformin] (partner 250 µM)
relative viability (NCI-H2085; first compound 0.005 µM): 0.652 | relative viability (NCI-H2085; first compound 0.01581 µM): 0.723 | relative viability (NCI-H2085; first compound 0.05 µM): 0.711 | relative viability (NCI-H2085; first compound 0.1581 µM): 0.62 | relative viability (NCI-H2085; first compound 0.5 µM): 0.673 | relative viability (NCI-H1563; first compound 0.005 µM): 0.602 | relative viability (NCI-H1563; first compound 0.01581 µM): 0.634 | relative viability (NCI-H1563; first compound 0.05 µM): 0.696 | relative viability (NCI-H1563; first compound 0.1581 µM): 0.735 | relative viability (NCI-H1563; first compound 0.5 µM): 0.666 | relative viability (NCI-H1944; first compound 0.005 µM): 0.189 | relative viability (NCI-H1944; first compound 0.01581 µM): 0.202 | relative viability (NCI-H1944; first compound 0.05 µM): 0.208 | relative viability (NCI-H1944; first compound 0.1581 µM): 0.21 | relative viability (NCI-H1944; first compound 0.5 µM): 0.188 | relative viability (LU99A; first compound 0.005 µM): 0.79 | relative viability (LU99A; first compound 0.01581 µM): 0.768 | relative viability (LU99A; first compound 0.05 µM): 0.879 | relative viability (LU99A; first compound 0.1581 µM): 0.769 | relative viability (LU99A; first compound 0.5 µM): 0.755 | relative viability (HCC-827; first compound 0.005 µM): 0.402 | relative viability (HCC-827; first compound 0.01581 µM): 0.434 | relative viability (HCC-827; first compound 0.05 µM): 0.391 | relative viability (HCC-827; first compound 0.1581 µM): 0.43 | relative viability (HCC-827; first compound 0.5 µM): 0.452 | relative viability (EPLC-272H; first compound 0.005 µM): 0.271 | relative viability (EPLC-272H; first compound 0.01581 µM): 0.355 | relative viability (EPLC-272H; first compound 0.05 µM): 0.359 | relative viability (EPLC-272H; first compound 0.1581 µM): 0.314 | relative viability (EPLC-272H; first compound 0.5 µM): 0.239 | relative viability (NCI-H2023; first compound 0.005 µM): 0.408 | relative viability (NCI-H2023; first compound 0.01581 µM): 0.421 | relative viability (NCI-H2023; first compound 0.05 µM): 0.426 | relative viability (NCI-H2023; first compound 0.1581 µM): 0.43 | relative viability (NCI-H2023; first compound 0.5 µM): 0.377 | relative viability (SK-MES-1; first compound 0.005 µM): 0.622 | relative viability (SK-MES-1; first compound 0.01581 µM): 0.676 | relative viability (SK-MES-1; first compound 0.05 µM): 0.71 | relative viability (SK-MES-1; first compound 0.1581 µM): 0.688 | relative viability (SK-MES-1; first compound 0.5 µM): 0.602 | relative viability (EMC-BAC-2; first compound 0.005 µM): 0.48 | relative viability (EMC-BAC-2; first compound 0.01581 µM): 0.519 | relative viability (EMC-BAC-2; first compound 0.05 µM): 0.51 | relative viability (EMC-BAC-2; first compound 0.1581 µM): 0.428 | relative viability (EMC-BAC-2; first compound 0.5 µM): 0.441 | relative viability (NCI-H2405; first compound 0.005 µM): 0.418 | relative viability (NCI-H2405; first compound 0.01581 µM): 0.401 | relative viability (NCI-H2405; first compound 0.05 µM): 0.436 | relative viability (NCI-H2405; first compound 0.1581 µM): 0.373 | relative viability (NCI-H2405; first compound 0.5 µM): 0.375 | relative viability (COR-L23; first compound 0.005 µM): 0.427 | relative viability (COR-L23; first compound 0.01581 µM): 0.433 | relative viability (COR-L23; first compound 0.05 µM): 0.446 | relative viability (COR-L23; first compound 0.1581 µM): 0.43 | relative viability (COR-L23; first compound 0.5 µM): 0.409 | relative viability (NCI-H2087; first compound 0.005 µM): 0.416 | relative viability (NCI-H2087; first compound 0.01581 µM): 0.444 | relative viability (NCI-H2087; first compound 0.05 µM): 0.496 | relative viability (NCI-H2087; first compound 0.1581 µM): 0.407 | relative viability (NCI-H2087; first compound 0.5 µM): 0.415 | relative viability (ChaGo-K-1; first compound 0.005 µM): 0.474 | relative viability (ChaGo-K-1; first compound 0.01581 µM): 0.488 | relative viability (ChaGo-K-1; first compound 0.05 µM): 0.492 | relative viability (ChaGo-K-1; first compound 0.1581 µM): 0.507 | relative viability (ChaGo-K-1; first compound 0.5 µM): 0.433 | relative viability (NCI-H838; first compound 0.005 µM): 0.538 | relative viability (NCI-H838; first compound 0.01581 µM): 0.551 | relative viability (NCI-H838; first compound 0.05 µM): 0.538 | relative viability (NCI-H838; first compound 0.5 µM): 0.564 | relative viability (NCI-H1651; first compound 0.005 µM): 0.297 | relative viability (NCI-H1651; first compound 0.01581 µM): 0.425 | relative viability (NCI-H1651; first compound 0.05 µM): 0.314 | relative viability (NCI-H1651; first compound 0.1581 µM): 0.36 | relative viability (NCI-H1651; first compound 0.5 µM): 0.315 | relative viability (HCC-44; first compound 0.005 µM): 0.152 | relative viability (HCC-44; first compound 0.01581 µM): 0.234 | relative viability (HCC-44; first compound 0.05 µM): 0.19 | relative viability (HCC-44; first compound 0.1581 µM): 0.18 | relative viability (HCC-44; first compound 0.5 µM): 0.131 | relative viability (LCLC-103H; first compound 0.005 µM): 0.325 | relative viability (LCLC-103H; first compound 0.01581 µM): 0.326 | relative viability (LCLC-103H; first compound 0.05 µM): 0.35 | relative viability (LCLC-103H; first compound 0.1581 µM): 0.306 | relative viability (LCLC-103H; first compound 0.5 µM): 0.348 | relative viability (NCI-H520; first compound 0.005 µM): 0.57 | relative viability (NCI-H520; first compound 0.01581 µM): 0.539 | relative viability (NCI-H520; first compound 0.05 µM): 0.631 | relative viability (NCI-H520; first compound 0.1581 µM): 0.311 | relative viability (NCI-H520; first compound 0.5 µM): 0.348 | relative viability (NCI-H1793; first compound 0.005 µM): 0.35 | relative viability (NCI-H1793; first compound 0.01581 µM): 0.352 | relative viability (NCI-H1793; first compound 0.05 µM): 0.419 | relative viability (NCI-H1793; first compound 0.1581 µM): 0.309 | relative viability (NCI-H1793; first compound 0.5 µM): 0.335 | relative viability (NCI-H1395; first compound 0.005 µM): 0.357 | relative viability (NCI-H1395; first compound 0.01581 µM): 0.475 | relative viability (NCI-H1395; first compound 0.05 µM): 0.444 | relative viability (NCI-H1395; first compound 0.1581 µM): 0.426 | relative viability (NCI-H1395; first compound 0.5 µM): 0.383 | relative viability (NCI-H650; first compound 0.005 µM): 0.395 | relative viability (NCI-H650; first compound 0.01581 µM): 0.457 | relative viability (NCI-H650; first compound 0.05 µM): 0.472 | relative viability (NCI-H650; first compound 0.1581 µM): 0.39 | relative viability (NCI-H650; first compound 0.5 µM): 0.333 | relative viability (H3255; first compound 0.005 µM): 0.332 | relative viability (H3255; first compound 0.01581 µM): 0.333 | relative viability (H3255; first compound 0.05 µM): 0.354 | relative viability (H3255; first compound 0.1581 µM): 0.339 | relative viability (H3255; first compound 0.5 µM): 0.351
